Data published in patent US9884063B2, “Amido-substituted azole compounds” (Bayer Pharma Aktiengesellschaft, priority 2014, dated 2018).

Target: T1, TNKS2 (Homo sapiens, UniProt Q9H2K2)
T1 sequence (Q9H2K2 1-1166): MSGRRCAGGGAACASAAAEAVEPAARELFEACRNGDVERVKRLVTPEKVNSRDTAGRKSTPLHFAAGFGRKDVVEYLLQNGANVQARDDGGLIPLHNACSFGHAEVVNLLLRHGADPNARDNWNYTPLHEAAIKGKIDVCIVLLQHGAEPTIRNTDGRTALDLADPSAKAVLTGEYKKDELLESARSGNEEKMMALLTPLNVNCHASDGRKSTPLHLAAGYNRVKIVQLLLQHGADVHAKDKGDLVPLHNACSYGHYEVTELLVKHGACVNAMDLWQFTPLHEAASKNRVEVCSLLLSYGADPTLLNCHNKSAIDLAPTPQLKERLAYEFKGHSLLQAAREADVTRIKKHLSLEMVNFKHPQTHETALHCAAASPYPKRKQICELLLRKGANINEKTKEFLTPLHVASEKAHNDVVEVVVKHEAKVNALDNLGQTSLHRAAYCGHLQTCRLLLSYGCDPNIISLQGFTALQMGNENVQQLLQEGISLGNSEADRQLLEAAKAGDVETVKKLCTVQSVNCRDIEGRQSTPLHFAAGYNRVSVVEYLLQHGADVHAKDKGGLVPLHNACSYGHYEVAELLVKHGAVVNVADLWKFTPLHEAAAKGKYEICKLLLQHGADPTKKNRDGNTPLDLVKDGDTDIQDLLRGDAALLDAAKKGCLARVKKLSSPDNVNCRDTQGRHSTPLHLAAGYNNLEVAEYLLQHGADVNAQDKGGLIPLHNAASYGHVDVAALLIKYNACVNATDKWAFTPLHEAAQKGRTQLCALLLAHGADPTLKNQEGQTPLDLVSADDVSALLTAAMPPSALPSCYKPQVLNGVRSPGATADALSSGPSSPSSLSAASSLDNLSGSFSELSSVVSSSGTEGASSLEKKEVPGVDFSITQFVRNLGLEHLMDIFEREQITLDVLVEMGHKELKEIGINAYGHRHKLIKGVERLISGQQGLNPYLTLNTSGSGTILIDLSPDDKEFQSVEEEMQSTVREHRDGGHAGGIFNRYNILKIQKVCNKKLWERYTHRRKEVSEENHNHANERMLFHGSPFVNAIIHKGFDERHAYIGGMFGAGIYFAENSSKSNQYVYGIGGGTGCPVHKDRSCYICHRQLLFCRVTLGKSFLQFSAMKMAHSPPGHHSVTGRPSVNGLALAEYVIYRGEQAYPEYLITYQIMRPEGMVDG
Test: TNKS2 Assay 1 (TNKS2 Histone Ribosylation Assay Kit, biotin-labeled NAD+)
Format: biochemical
Details: chemiluminescent readout, 384 well
Procedure: The potency of the compounds according to the invention was assessed applying an in vitro inhibition assay. The TNKS2 catalyzed NAD^+-dependent ribosylation of a suitable protein substrate was detected using a commercially available biotin/streptavidin binding based assay format [TNKS2 Histone Ribosylation Assay Kit (Biotin-labeled NAD+), Catalog #80572; BPS Bioscience, San Diego, USA]. Here, the incorporation of a biotin-labeled NAD+ during the TNKS2 catalyzed ribosylation reaction was detected with a streptavidin-HRP coupled chemi-luminescent readout. The intensity of the readout signal is proportional to the incorporated NAD^+. Inhibition of TNKS2 leads to a decreased incorporation of NAD^+ and consequently to a lower readout signal intensity. The concentration of a test compound which inhibits the enzyme activity by 50% (corresponds to half of the normed readout signal intensity) is reported as IC50.
The assay was conducted in a 384 well MTP format according to the manufacturer's protocol [bpsbioscience.com/poly-adp-ribose-polymerase/assay-kit/tnks2-histone-ribosylation-assay-kit-biotin-labeled-nad-80572 referencing: Brown, J. A., Marala, R. B. J. Pharmacol. Toxicol. Methods 2002 47:137-41]. and using a BMG Pherastar MTP reader [BMG-Labtech, Offenburg, Germany].

Row | IC50 (Table 2) [nM] | IC50 (first table) [nM] | Structure (SMILES)
1 | 20 | 20 | CNC(=O)c1nc[nH]c1C(=O)Nc1ccc(NC(=O)c2cccc(Cl)c2Cl)cc1 [Example 1, N^5-{4-[(2,3-dichlorobenzoyl)amino]phenyl}-N^4-methyl-1H-imidazole-4,5-dicarboxamide]
2 | 90 | 90 | CNC(=O)c1nc[nH]c1C(=O)Nc1ccc(NC(=O)c2ccc(N(C)C)cc2Cl)cc1 [Example 4, N^5-(4-{[2-chloro-4-(dimethylamino)benzoyl]amino}phenyl)-N^4-methyl-1H-imidazole-4,5-dicarboxamide]
3 | 50 | 50 | CNC(=O)c1nc[nH]c1C(=O)Nc1ccc(NC(=O)c2ccncc2Cl)cc1 [Example 6, N^5-{4-[(3-chloroisonicotinoyl)amino]phenyl}-N^4-methyl-1H-imidazole-4,5-dicarboxamide]
4 | 30 | 20 | CNC(=O)c1nc[nH]c1C(=O)Nc1ccc(NC(=O)c2ccc(Cl)cc2Cl)cc1 [Example 9, N^5-{4-[(2,4-dichlorobenzoyl)amino]phenyl}-N^4-methyl-1H-imidazole-4,5-dicarboxamide]
5 | 230 | 230 | CC(C)NC(=O)c1nc[nH]c1C(=O)Nc1ccc(NC(=O)c2ccc(F)cc2Cl)cc1 [Example 10, N^5-{4-[(2-chloro-4-fluorobenzoyl)amino]phenyl}-N^4-isopropyl-1H-imidazole-4,5-dicarboxamide]
6 | 20 | 20 | CNC(=O)c1nc[nH]c1C(=O)Nc1ccc(NC(=O)c2ccc(F)cc2Cl)cc1 [Example 12, N^5-{4-[(2-chloro-4-fluorobenzoyl)amino]phenyl}-N^4-methyl-1H-imidazole-4,5-dicarboxamide]
7 | 290 | 290 | CNC(=O)c1nc[nH]c1C(=O)Nc1ccc(NC(=O)c2ccccc2C)cc1 [Example 19, N^4-methyl-N^5-{4-[(2-methylbenzoyl)amino]phenyl}-1H-imidazole-4,5-dicarboxamide]
8 | 1700 | 1700 | CNC(=O)c1nc[nH]c1C(=O)Nc1ccc(NC(=O)c2ccc(F)cc2)cc1 [Example 20, N^5-{4-[(4-fluorobenzoyl)amino]phenyl}-N^4-methyl-1H-imidazole-4,5-dicarboxamide]
9 | 340 | 340 | CNC(=O)c1nc[nH]c1C(=O)Nc1ccc(NC(=O)c2c(C)cc(F)cc2C)cc1 [Example 23, N^5-{4-[(4-fluoro-2,6-dimethylbenzoyl)amino]phenyl}-N^4-methyl-1H-imidazole-4,5-dicarboxamide]
10 | 160 | 160 | CNC(=O)c1nc[nH]c1C(=O)Nc1ccc(NC(=O)c2c(Cl)cccc2Cl)cc1 [Example 26, N^5-{4-[(2,6-dichlorobenzoyl)amino]phenyl}-N^4-methyl-1H-imidazole-4,5-dicarboxamide]
11 | 40 | 40 | CNC(=O)c1nc[nH]c1C(=O)Nc1ccc(NC(=O)c2ccccc2Cl)cc1 [Example 27, N^5-{4-[(2-chlorobenzoyl)amino]phenyl}-N^4-methyl-1H-imidazole-4,5-dicarboxamide]
12 | > 100000 | – | CNC(=O)c1[nH]cnc1C(=O)Nc1ccc(NC(=O)c2cc(Cl)sc2Cl)cc1 [Example 213, N^4-(4-{[(2,5-dichloro-3-thienyl)carbonyl]amino}phenyl)-N^5-methyl-1H-imidazole-4,5-dicarboxamide]

Second part, the compound before the results:

Row | Structure (SMILES) | IC50 (Table 2) [nM] | IC50 (first table) [nM]
13 | CNC(=O)c1nc[nH]c1C(=O)Nc1ccc(NC(=O)c2ccc(N3CCCC3)cc2F)cc1 [Example 3, N^5-(4-{[2-fluoro-4-(pyrrolidin-1-yl)benzoyl]amino}phenyl)-N^4-methyl-1H-imidazole-4,5-dicarboxamide] | 30000 | –
14 | CNC(=O)c1nc[nH]c1C(=O)Nc1ccc(NC(=O)c2ccc(F)cc2Cl)c(C)c1 [Example 5, N^5-{4-[(2-chloro-4-fluorobenzoyl)amino]-3-methylphenyl}-N^4-methyl-1H-imidazole-4,5-dicarboxamide] | 470 | 470
15 | CCC(C)NC(=O)c1ncoc1C(=O)Nc1ccc(NC(=O)c2ccc(F)cc2Cl)cc1 (centres unmarked) [Example 7, N^4-sec-butyl-N^5-{4-[(2-chloro-4-fluorobenzoyl)amino]phenyl}-1,3-oxazole-4,5-dicarboxamide] | 19000 | 19100
16 | CC(NC(=O)c1ncoc1C(=O)Nc1ccc(NC(=O)c2ccc(F)cc2Cl)cc1)c1ccccc1 (centres unmarked) [Example 8, N^5-{4-[(2-chloro-4-fluorobenzoyl)amino]phenyl}-N^4-(1-phenylethyl)-1,3-oxazole-4,5-dicarboxamide] | 7000 | 7000
17 | CNC(=O)c1ncoc1C(=O)Nc1ccc(NC(=O)c2ccc(F)cc2Cl)cc1 [Example 11, N^5-{4-[(2-chloro-4-fluorobenzoyl)amino]phenyl}-N^4-methyl-1,3-oxazole-4,5-dicarboxamide] | 90 | 120
18 | COC(=O)c1ncoc1C(=O)Nc1ccc(NC(=O)c2ccc(F)cc2Cl)cc1 [Example 14, Methyl 5-({4-[(2-chloro-4-fluorobenzoyl)amino]phenyl}carbamoyl)-1,3-oxazole-4-carboxylate] | 300 | 300
19 | CC(C)NC(=O)c1ncoc1C(=O)Nc1ccc(NC(=O)c2ccc(F)cc2Cl)cc1 [Example 15, N^5-{4-[(2-chloro-4-fluorobenzoyl)amino]phenyl}-N^4-isopropyl-1,3-oxazole-4,5-dicarboxamide] | 1100 | 1140
20 | CNC(=O)c1nc[nH]c1C(=O)Nc1ccc(NC(=O)c2ccc(F)cc2Cl)nc1 [Example 16, N^5-{6-[(2-chloro-4-fluorobenzoyl)amino]pyridin-3-yl}-N^4-methyl-1H-imidazole-4,5-dicarboxamide] | 40 | 40
21 | CNC(=O)c1nc[nH]c1C(=O)Nc1ccc(NC(=O)c2c(-c3ccccc3)nn(C)c2Cl)cc1 [Example 17, N^5-(4-{[(5-chloro-1-methyl-3-phenyl-1H-pyrazol-4-yl)carbonyl]amino}phenyl)-N^4-methyl-1H-imidazole-4,5-dicarboxamide] | 2200 | 2200
22 | O=C(Nc1ccc(NC(=O)c2[nH]cnc2C(=O)NCc2ccccc2)cc1)c1ccc(F)cc1Cl [Example 18, N^4-benzyl-N^5-{4-[(2-chloro-4-fluorobenzoyl)amino]phenyl}-1H-imidazole-4,5-dicarboxamide] | 850 | 850
23 | CN(C)C(=O)c1nc[nH]c1C(=O)Nc1ccc(NC(=O)c2ccc(F)cc2Cl)cc1 [Example 24, N^5-{4-[(2-chloro-4-fluorobenzoyl)amino]phenyl}-N^4,N^4-dimethyl-1H-imidazole-4,5-dicarboxamide] | 500 | 500
24 | CNC(=O)c1nc[nH]c1C(=O)Nc1ccc(NC(=O)c2ccc(OCCN(C)C)cc2Cl)cc1 [Example 25, N^5-[4-({2-chloro-4-[2-(dimethylamino)ethoxy]benzoyl}amino)phenyl]-N^4-methyl-1H-imidazole-4,5-dicarboxamide] | 60 | 60
25 | CNC(=O)c1nc[nH]c1C(=O)Nc1ccc(NC(=O)c2ccc(OCCN3CCN(C)CC3)cc2Cl)cc1 [Example 28, N^5-[4-({2-chloro-4-[2-(4-methylpiperazin-1-yl)ethoxy]benzoyl}amino)phenyl]-N^4-methyl-1H-imidazole-4,5-dicarboxamide] | 60 | 60
26 | O=C(Nc1ccc(NC(=O)c2[nH]cnc2C(=O)NCC(F)(F)F)cc1)c1ccc(F)cc1Cl [Example 30, N^4-{4-[(2-chloro-4-fluorobenzoyl)amino]phenyl}-N^5-(2,2,2-trifluoroethyl)-1H-imidazole-4,5-dicarboxamide] | 70 | 70
